Source: patent publication US8053627B2, “Methods for treating demyelination disorders” (University of Chicago, priority 2005, dated 2011)

System: rat oligodendrocytes
Assay: Cultured rat oligodendrocytes treated with recombinant rat IFN-γ
Format: cell-based
Method: To test whether apoptosis of oligodendrocytes that is induced by INF-γ affects ER stress, the effect on the morphology, the degree of apoptosis and the expression of ER markers was studied in a culture of oligodendrocyte precursor cells (OPC). Oligodendrocyte progenitors were cultured from neonatal rat brains (Baerwald, et al. (1998) J. Neurosci Res. 52: 230-239). A mixed glial culture was grown in flasks in medium containing 10% fetal bovine serum (FBS), and when the astrocyte layer became confluent (10-14 days), oligodendrocyte progenitors were separated from astrocytes and microglia using an orbital shaker. Cells, greater than 95% of which were A2B5 positive, GFAP negative and CD11b negative, were cultured in 0.5% FBS containing medium, which also contained PDGF (10 ng/ml) and FGF (5 ng/ml) (both from R&D Systems, Minneapolis, Minn.). Then cells were switched to 0.5% FBS medium without PDGF and FGF for differentiation. After 5 days in the differentiating medium, approximately 40% of cells were positive for myelin protein 2′3′-cyclic nucleotide 3′-phosphodiestaerase (CNP). 70 U/ml recombinant rat IFN-γ (Calbiochem, La Jolla, Calif.) was added to the cells that had been allowed to differentiation for 5 days. […] To examine the oligodendroglial response to general ER stress-inducing agents, progenitor cells that had been cultured in differentaition medium for 5 or 7 days were treated with 2 μg/ml of tunicamycin (Sigma Aldrich) for 6 hours.
The level of apoptosis of the OPC cells was determined by double staining CNP (1:200; Sternberger Monoclonals, Lutherville, Md.) and TUNEL using the ApopTag Kit (Serologicals Corp., Norcross, Calif.) and following the manufacturer's instructions. Apoptosis was also evaluated by measuring the activity of caspase-3 in oligodendrocyte lysates using the Fluorimetric Caspase 3 Assay Kit (Sigma, St. Louis, Mo.), according to the manufacturer's instructions.
To determine whether INF-γ affects ER function, the RNA expression of ER markers binding immunoglobulin protein (BIP), CAAT enhancer binding protein homologous protein (CHOP), and caspase 12 was determined using real time PCR. RNA was isolated from cultured cells and mice brain using Trizol reagent (Invitrogen, Carlsbad, Calif.) and treated with DNAaseI (Invitrogen) to eliminate genomic DNA. Reverse transcription was performed using Superscript First Strand Synthesis System for RT-PCR kit (Invitrogen). Real-time PCR was performed with iQ Supermix (Bio-Rad, Hercules, Calif.) on a Bio-Rad iQ real-time PCR detection system (Bio-Rad). The following primers and probes (Integrated DNA Technologies Inc., Coralville, Iowa) for real-time PCR were used: mouse CHOP sense primer […] (SEQ ID NO: 34); mouse CHOP antisense primer […] (SEQ ID NO: 35); CHOP probe […] (SEQ ID NO: 36); mouse BIP sense primer […] (SEQ I DNO: 31); mouse BIP antisense primer […] (SEQ ID NO: 32); BIP probe […] (SEQ ID NO: 33); mouse caspase 12 sense primer […] (SEQ ID NO: 37); and mouse caspase antisense primer […] (SEQ ID NO: 38).
To determine the effect of INF-γ on the level of phosphorylated eIF-2α and caspase 12 proteins, western blot analysis was performed using the following antibodies anti-eIF-2α (1:500; Santa Cruz), anti-p-eIF-2α (1:1000, Cell signaling Technology), anti-caspase-12 (1:500; Santa Cruz) and anti-actin (1:1000; Sigma, St Louis, Mo.), and according to the following protocol. […]

“IFN-γ: pleotropic cytokine secreted by activated T lymphocytes and natural killer cells; delivered to the CNS by transgene or added as recombinant protein” was tested, and the “caspase-3 activity in cell lysates” value (70 U/ml IFN-γ) was “markedly increased”, the “caspase-12 expression (real-time PCR)” value (70 U/ml IFN-γ) was “induction of caspase-12 was observed” and the “level of phosphorylated eIF-2α (Western blot)” value (70 U/ml IFN-γ) was “significantly elevated”. For the same substance, the “apoptosis (TUNEL and CNP double labeling)” value (70 U/ml IFN-γ for 48 h) was “induced apoptosis in a significant number of oligodendrocytes”, the cell morphology (70 U/ml IFN-γ for 48 h, cells differentiated 5 days) was “abnormal morphological changes” and the “level of the active fragment of caspase-12 (Western blot)” value (after 48 h of IFN-γ treatment) was “strongly elevated”.
